Assay results reported in US10065990B2, “Cyclic peptide compound, and preparation method, pharmaceutical composition and use thereof” (HANGZHOU GUANYU BIO-MEDICAL CO., LTD, priority 2013, dated 2018).
Like-named read-outs stand apart in the source and are kept apart here.

How the values were obtained:
[1] = system: SGC-7901 (human gastric cancer cells); test: MTT cancer cell growth inhibition; format: cell-based; conditions: Homo sapiens, SGC-7901, 72 h, MTT, 72 hours incubation, SGC-7901 cells; read-out: GI50 SGC-7901
How it was run: (§1)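 Three-day compound exposure (final 10^−5–10^−10 M, three replicate wells) of cells seeded at 1500 per well precedes a 4 h MTT incubation at 37° C. Viability is taken from 570 nm absorbance after DMSO solubilisation, and GI50 calculated from it.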

[2] = system: N-87 (human gastric cancer cells); test: MTT cancer cell growth inhibition; format: cell-based; conditions: Homo sapiens, 72 h, MTT, 72 hours incubation, N-87 cells; read-out: GI50 N-87
How it was run: as §1

[3] = system: HCC827 (human non-small cell lung cancer cells); test: MTT cancer cell growth inhibition; format: cell-based; conditions: Homo sapiens, HCC827, 72 h, MTT, 72 hours incubation, HCC827 cells; read-out: GI50 HCC827
How it was run: as §1

[4] = system: KBM5-T315I (human chronic myelogenous leukemia); test: MTT cancer cell growth inhibition; format: cell-based; conditions: Homo sapiens, 72 h, MTT, 72 hours incubation, KBM5-T315I cells; read-out: GI50 KBM5-T315I
How it was run: as §1

[5] = system: DU145 (human prostate cancer cells); test: MTT cancer cell growth inhibition; format: cell-based; conditions: Homo sapiens, DU-145, 72 h, MTT, 72 hours incubation, read-out: GI50 Du1
How it was run: as §1

[6] = system: K562 (human leukemia cells); test: MTT cancer cell growth inhibition; format: cell-based; conditions: Homo sapiens, K562, 72 h, MTT, 72 hours incubation, K562 cells; read-out: GI50 K562
How it was run: as §1

[7] = system: BGC-823 (human gastric cancer cells); test: MTT cancer cell growth inhibition; format: cell-based; conditions: Homo sapiens, BGC-823, 72 h, MTT, 72 hours incubation, read-out: GI50 BG
How it was run: as §1

[8] = system: U937 (human leukemia cells); test: MTT cancer cell growth inhibition; format: cell-based; conditions: MTT, 72 hours incubation, read-out: GI50 U93
How it was run: as §1

[9] = system: A549 (human lung cancer cells); test: MTT cancer cell growth inhibition; format: cell-based; conditions: Homo sapiens, A549, 72 h, MTT, 72 hours incubation, read-out: GI50 A54
How it was run: as §1

[10] = system: Huh-7 (human hepatoma cells); test: MTT cancer cell growth inhibition; format: cell-based; conditions: Homo sapiens, Huh-7, 72 h, MTT, 72 hours incubation, Huh-7 cells; read-out: GI50 Huh-7
How it was run: as §1

[11] = system: MDA-MB-231 (breast cancer cells); test: MTT cancer cell growth inhibition; format: cell-based; conditions: Homo sapiens, MDA-MB-231, 72 h, read-out: GI50 MDA-MB-231, MTT, 72 hours incubation, MDA-MB-231 cells
How it was run: as §1

[12] = system: HT1080 (human fibrosarcoma cells); test: MTT cancer cell growth inhibition; format: cell-based; conditions: MTT, 72 hours incubation, read-out: GI50 HT1
How it was run: as §1

[13] = system: PANC-1 (Pac-1, human pancreatic cancer cells); test: MTT cancer cell growth inhibition; format: cell-based; conditions: Homo sapiens, PANC-1, 72 h, MTT, 72 hours incubation, read-out: GI50 PAN
How it was run: as §1

[14] = system: H1975 (non-small cell lung adenocarcinoma); test: MTT cancer cell growth inhibition; format: cell-based; conditions: Homo sapiens, NCI-H1975, 72 h, MTT, 72 hours incubation, H1975 cells; read-out: GI50 H1975
How it was run: as §1

[15] = system: Hela (human cervical cancer cells); test: MTT cancer cell growth inhibition; format: cell-based; conditions: MTT, 72 hours incubation, read-out: GI50 Hela
How it was run: as §1

[16] = system: lncap (prostate cancer cells); test: MTT cancer cell growth inhibition; format: cell-based; conditions: Homo sapiens, LNCaP, 72 h, MTT, 72 hours incubation, read-out: GI50 lnca
How it was run: as §1

[17] = system: MOLT-4 (human acute lymphoblastic leukemia cells); test: MTT cancer cell growth inhibition; format: cell-based; conditions: Homo sapiens, MOLT-4, 72 h, MTT, 72 hours incubation, read-out: GI50 Mol
How it was run: as §1

[18] = system: Bel-7402 (human hepatoma cells); test: MTT cancer cell growth inhibition; format: cell-based; conditions: MTT, 72 hours incubation, Bel-7402 cells, read-out: GI50 Bel-7402
How it was run: as §1

[19] = system: MCF-7 (human breast cancer cells); test: MTT cancer cell growth inhibition; format: cell-based; conditions: 72 hours incubation, read-out: GI50 MCF
How it was run: as §1

[20] = system: KBM-5 (human chronic myelogenous leukemia); test: MTT cancer cell growth inhibition; format: cell-based; conditions: Homo sapiens, KBM5, 72 h, MTT, 72 hours incubation, KBM-5 cells; read-out: GI50 KBM-5
How it was run: as §1

[21] = biological target: T1, HDAC7 (Homo sapiens, UniProt Q8WUI4); test: HDAC biochemical activity measurement (fluorescent substrate deacetylation);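 on all read-outs here: fluorogenic deacetylation assay using acetyl-lysine substrate at 20 µM, enzyme and compound incubated 30 min at 37 °C, then developer added, fluorescence read at 360/460 nm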; conditions: for IC50 HDAC7: 37° C. 30 minutes
T1 sequence (Q8WUI4 1-952): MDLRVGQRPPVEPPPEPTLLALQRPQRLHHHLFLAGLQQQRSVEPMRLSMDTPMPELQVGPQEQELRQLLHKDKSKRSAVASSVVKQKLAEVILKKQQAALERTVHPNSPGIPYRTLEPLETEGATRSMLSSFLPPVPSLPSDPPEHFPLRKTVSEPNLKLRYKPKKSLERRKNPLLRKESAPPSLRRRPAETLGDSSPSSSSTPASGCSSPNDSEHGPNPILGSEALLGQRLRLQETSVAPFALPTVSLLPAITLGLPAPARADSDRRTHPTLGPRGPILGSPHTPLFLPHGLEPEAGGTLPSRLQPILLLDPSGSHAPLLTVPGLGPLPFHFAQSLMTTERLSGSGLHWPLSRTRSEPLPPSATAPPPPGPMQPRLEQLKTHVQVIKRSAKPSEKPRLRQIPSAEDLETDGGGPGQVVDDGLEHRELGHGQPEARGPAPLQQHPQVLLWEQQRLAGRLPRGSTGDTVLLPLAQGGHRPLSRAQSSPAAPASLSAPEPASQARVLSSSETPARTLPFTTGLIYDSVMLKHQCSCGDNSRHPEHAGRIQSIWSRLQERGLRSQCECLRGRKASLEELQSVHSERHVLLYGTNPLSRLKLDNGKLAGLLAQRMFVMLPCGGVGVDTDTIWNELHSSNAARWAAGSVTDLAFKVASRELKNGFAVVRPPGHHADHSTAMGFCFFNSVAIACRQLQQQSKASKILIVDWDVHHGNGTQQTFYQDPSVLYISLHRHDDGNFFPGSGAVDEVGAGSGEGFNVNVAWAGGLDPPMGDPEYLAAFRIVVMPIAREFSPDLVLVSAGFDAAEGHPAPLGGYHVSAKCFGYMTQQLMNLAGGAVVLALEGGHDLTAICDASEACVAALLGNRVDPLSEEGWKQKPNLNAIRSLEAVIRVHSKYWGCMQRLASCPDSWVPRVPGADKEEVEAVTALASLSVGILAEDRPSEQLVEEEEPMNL
Procedure: The chemical activity of the compound is determined according to the degree of deacetylation inhibition of the HDAC enzyme. This experiment measured the degree of deacetylation related to tumor proliferation and metastasis of HDAC1, HDAC2, HDAC3, HDAC8, HDAC11 five subtypes HDAC enzymes. After the substrate containing an acetylated lysine side chain and HDAC enzyme are labeled with a fluorescent label, the fluorescent substrate is de acetyl. The fluorescent labeled substrate is cleaved by the enzyme, and the fluorescent substance is released, which generates 460 nm emission light under the excitation of 360 nm light.
HDAC substrate was diluted with reaction buffer to 200M (reaction concentration of 20M), the HDAC enzyme was diluted to the appropriate concentration, then added different concentrations of the test compounds and acted at 37° C. 30 minutes, and then added the same volume of 2-times concentration substrate developing solution (developer), incubated at room temperature for 15 minutes. Finally, the last reading measured with a microplate plate reader, excitation light was 360 nm, the emitted light was 460 nm, data processing software was Prime 4, and the results are shown in Table 1.

GI50 [1]	GI50 [2]	GI50 [3]	GI50 [4]	GI50 [6]	GI50 [10]	GI50 [11]	GI50 [14]	GI50 ([18]; Homo sapiens, Bel-7402, 72 h)	GI50 [20]	GI50 [5]	GI50 [7]	GI50 ([8]; Homo sapiens, U-937, 72 h)	GI50 [9]	GI50 ([12]; Homo sapiens, HT-1080, 72 h)	GI50 [13]	GI50 ([15]; Homo sapiens, HeLa, 72 h)	GI50 [16]	GI50 [17]	IC50 HDAC7 [21]	Structure (SMILES)	also measured
34 nM	13 nM	83 nM	38 nM	16 nM	31 nM	31 nM	26 nM	83 nM	93 nM	10 nM	10 nM	20 nM	30 nM	80 nM	80 nM	90 nM	30 nM	30 nM	no activity	CC(=O)SCC/C=C/[C@@H]1CC(=O)NCc2nc(ccc2F)C(=O)NC(=C(C)C)C(=O)N[C@@H](C(C)C)C(=O)O1 [Compound 89]	GI50 ([19]; Homo sapiens, MCF7, 72 h): 30 nM
44 nM	26 nM	93 nM	51 nM	33 nM	87 nM	41 nM	79 nM	39 nM	11 nM	50 nM	50 nM	90 nM	90 nM	90 nM	50 nM	70 nM	70 nM	90 nM	no activity	CC(C)=C1NC(=O)c2cccc(n2)CNC(=O)C[C@@H](/C=C/CCS)OC(=O)[C@H](C(C)C)NC1=O [Compound 135]	GI50 ([19]; Homo sapiens, MCF7, 72 h): 50 nM

Second part, the compound before the results:

Structure (SMILES)	GI50 [1]	GI50 [2]	GI50 [3]	GI50 [4]	GI50 [6]	GI50 [10]	GI50 [11]	GI50 [14]	GI50 ([18]; Homo sapiens, Bel-7402, 72 h)	GI50 [20]	GI50 [5]	GI50 [7]	GI50 ([8]; Homo sapiens, U-937, 72 h)	GI50 [9]	GI50 ([12]; Homo sapiens, HT-1080, 72 h)	GI50 [13]	GI50 ([15]; Homo sapiens, HeLa, 72 h)	GI50 [16]	GI50 [17]	IC50 HDAC7 [21]	also measured
C/C=C1\NC(=O)c2ccc(SCC)c(n2)CNC(=O)C[C@@H](/C=C/CCSC(=O)CCCCCCC)OC(=O)[C@H](C(C)C)NC1=O [Compound 249]	33 nM	45 nM	23 nM	27 nM	72 nM	43 nM	29 nM	76 nM	41 nM	47 nM											GI50 ([5]; DU145 cells): 30 nM; GI50 ([7]; BGC-823 cells): 30 nM; GI50 ([8]; Homo sapiens, U-937, 72 h, U937 cells): 70 nM; GI50 ([9]; A549 cells): 50 nM; GI50 ([12]; Homo sapiens, HT-1080, 72 h, HT1080 cells): 40 nM; GI50 ([13]; PANC-1 cells): 20 nM; GI50 ([15]; Homo sapiens, HeLa, 72 h, Hela cells): 80 nM; GI50 ([16]; lncap cells): 40 nM; GI50 ([17]; MOLT-4 cells): 50 nM; GI50 ([19]; Homo sapiens, MCF7, 72 h, MCF-7 cells): 70 nM; IC50 (μM) HDAC7 [21]: no activity
C/C=C1\NC(=O)c2nc(ccc2F)CNC(=O)C[C@@H](/C=C/CCS)OC(=O)[C@H](C(C)C)NC1=O [Compound 106]	35 nM	12 nM	43 nM	76 nM	27 nM	31 nM	19 nM	68 nM	66 nM	56 nM	30 nM	20 nM	20 nM	60 nM	30 nM	30 nM	50 nM	30 nM	30 nM	no activity	GI50 ([19]; Homo sapiens, MCF7, 72 h): 30 nM
C/C=C1\NC(=O)c2nc(ccc2SC)CNC(=O)C[C@@H](/C=C/CCSC(C)=O)OC(=O)[C@H](C)NC1=O [Compound 183]	48 nM	37 nM	46 nM	65 nM	25 nM	47 nM	49 nM	41 nM		51 nM										no activity	GI50 ([5]; DU145 cells): 30 nM; GI50 ([7]; BGC-823 cells): 60 nM; GI50 ([8]; U937 cells): 20 nM; GI50 ([9]; A549 cells): 70 nM; GI50 ([12]; HT1080 cells): 50 nM; GI50 ([13]; PANC-1 cells): 50 nM; GI50 ([15]; Hela cells): 110 nM; GI50 ([16]; lncap cells): 60 nM; GI50 ([17]; MOLT-4 cells): 60 nM; GI50 [18]: 25 nM; GI50 ([19]; MCF-7 cells): 40 nM
C=C1NC(=O)c2ccc(F)c(n2)CNC(=O)C[C@@H](/C=C/CCS)OC(=O)[C@H](C(C)C)NC1=O [Compound 134]	27 nM	41 nM	35 nM	61 nM	38 nM	92 nM	63 nM	54 nM	29 nM	31 nM	50 nM	170 nM	50 nM	30 nM	70 nM	130 nM	40 nM	100 nM	50 nM	no activity	GI50 ([19]; Homo sapiens, MCF7, 72 h): 80 nM
